Data on nine compounds can be found in patent US11339130B1 (Blade Therapeutics, Inc., priority 2016, dated 2022).

Experiment [1] deals with Calpain activity in SH-SY5Y cells. The experiment in a line: SH-SY5Y + AMC fluorescence assay (Suc-LLVY-AMC substrate). The experiment is classed as cell-based. The following applies: read-out: SH-SY5Y + AMC IC50.
For the next experiment, the target named is T1, Human Calpain 1/NS1 (Homo sapiens, UniProt P07384).
T1 sequence (P07384 1-714): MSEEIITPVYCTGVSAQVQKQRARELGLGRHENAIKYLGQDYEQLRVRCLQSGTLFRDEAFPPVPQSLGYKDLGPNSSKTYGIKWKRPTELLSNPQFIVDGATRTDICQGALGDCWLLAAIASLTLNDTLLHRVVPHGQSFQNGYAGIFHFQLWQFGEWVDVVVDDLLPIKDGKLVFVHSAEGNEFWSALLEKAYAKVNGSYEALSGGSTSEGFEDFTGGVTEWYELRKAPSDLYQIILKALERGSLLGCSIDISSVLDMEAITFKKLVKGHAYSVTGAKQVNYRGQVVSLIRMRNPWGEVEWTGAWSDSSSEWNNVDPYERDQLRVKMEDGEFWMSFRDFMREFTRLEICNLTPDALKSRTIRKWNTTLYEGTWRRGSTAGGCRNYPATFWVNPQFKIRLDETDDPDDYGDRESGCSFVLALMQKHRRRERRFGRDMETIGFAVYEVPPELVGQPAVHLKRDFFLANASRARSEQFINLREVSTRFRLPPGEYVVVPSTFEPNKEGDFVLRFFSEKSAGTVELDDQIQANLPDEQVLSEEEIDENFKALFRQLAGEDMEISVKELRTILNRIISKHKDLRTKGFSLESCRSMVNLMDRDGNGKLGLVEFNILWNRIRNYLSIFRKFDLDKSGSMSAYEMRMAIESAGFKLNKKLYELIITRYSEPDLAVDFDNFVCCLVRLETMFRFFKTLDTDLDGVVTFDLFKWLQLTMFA
T1 sequence (P04632 1-268 partner): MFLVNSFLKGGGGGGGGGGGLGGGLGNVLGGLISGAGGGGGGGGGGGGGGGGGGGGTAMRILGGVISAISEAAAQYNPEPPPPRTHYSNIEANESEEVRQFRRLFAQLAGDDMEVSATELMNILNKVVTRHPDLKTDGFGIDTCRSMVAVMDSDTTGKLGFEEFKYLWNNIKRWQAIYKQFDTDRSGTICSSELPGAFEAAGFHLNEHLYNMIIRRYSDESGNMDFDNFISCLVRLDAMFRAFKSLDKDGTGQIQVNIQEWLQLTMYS
Put plainly: Calpain inhibition continuous fluorescence (FRET) assay, Human Calpain 1/NS1. The class given is biochemical. The following applies: read-out: Human Calpain 1/NS1 IC50. The method, boiled down: (§1)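 Human calpains 1, 2 and 9 preincubated with inhibitor at 25 °C in 50 mM Tris pH 7.5, 100 mM NaCl, 1 mM DTT; reaction started with 5-FAM/QXL 520 FRET peptide plus CaCl2 for activation. Fluorescence (490/520 nm) followed 10 min; rates from 1-5 min slopes fitted to 4-parameter logistic for IC50.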

Experiment [2] relates to Calpain activity in SH-SY5Y cells (SBDP-150). The experiment in a line: SH-SY5Y Spectrin western blot assay (SBDP-150 breakdown product, A23187-induced). The following applies: Homo sapiens, SH-SY5Y cells, read-out: SH-SY5Y Spectrin IC50. The experiment is classed as cell-based.
The target in the next experiment is T2, Human Calpain 2/NS1 (Homo sapiens, UniProt P17655).
T2 sequence (P17655 1-700): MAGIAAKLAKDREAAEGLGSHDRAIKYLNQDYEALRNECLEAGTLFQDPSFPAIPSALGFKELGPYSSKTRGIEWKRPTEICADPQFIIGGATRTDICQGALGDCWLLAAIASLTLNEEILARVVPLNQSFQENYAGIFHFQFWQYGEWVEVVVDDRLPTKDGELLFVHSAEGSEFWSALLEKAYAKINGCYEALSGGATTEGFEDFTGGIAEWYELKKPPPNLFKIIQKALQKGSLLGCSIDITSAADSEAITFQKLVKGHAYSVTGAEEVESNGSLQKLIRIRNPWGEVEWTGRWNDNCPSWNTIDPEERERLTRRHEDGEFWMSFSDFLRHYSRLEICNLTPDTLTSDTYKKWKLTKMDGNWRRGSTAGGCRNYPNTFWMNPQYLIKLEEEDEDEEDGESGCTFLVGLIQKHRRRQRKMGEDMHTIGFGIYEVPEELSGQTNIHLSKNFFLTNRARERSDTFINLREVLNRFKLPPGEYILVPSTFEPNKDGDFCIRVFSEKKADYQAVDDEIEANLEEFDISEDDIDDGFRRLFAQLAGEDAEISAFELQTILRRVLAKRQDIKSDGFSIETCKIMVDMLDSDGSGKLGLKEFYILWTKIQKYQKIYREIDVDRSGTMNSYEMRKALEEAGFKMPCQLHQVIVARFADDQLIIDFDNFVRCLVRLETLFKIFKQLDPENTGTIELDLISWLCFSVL
T2 sequence (P04632 1-268 partner): T1 sequence (P04632 1-268 partner)
Put plainly: Calpain inhibition continuous fluorescence (FRET) assay, Human Calpain 2/NS1. The class given is biochemical. Particulars: read-out: Human Calpain 2/NS1 IC50. The method, boiled down:
as §1

A further experiment concerns the target T3, Human Calpain 9/NS1 (Homo sapiens, UniProt O14815).
T3 sequence (O14815 1-690): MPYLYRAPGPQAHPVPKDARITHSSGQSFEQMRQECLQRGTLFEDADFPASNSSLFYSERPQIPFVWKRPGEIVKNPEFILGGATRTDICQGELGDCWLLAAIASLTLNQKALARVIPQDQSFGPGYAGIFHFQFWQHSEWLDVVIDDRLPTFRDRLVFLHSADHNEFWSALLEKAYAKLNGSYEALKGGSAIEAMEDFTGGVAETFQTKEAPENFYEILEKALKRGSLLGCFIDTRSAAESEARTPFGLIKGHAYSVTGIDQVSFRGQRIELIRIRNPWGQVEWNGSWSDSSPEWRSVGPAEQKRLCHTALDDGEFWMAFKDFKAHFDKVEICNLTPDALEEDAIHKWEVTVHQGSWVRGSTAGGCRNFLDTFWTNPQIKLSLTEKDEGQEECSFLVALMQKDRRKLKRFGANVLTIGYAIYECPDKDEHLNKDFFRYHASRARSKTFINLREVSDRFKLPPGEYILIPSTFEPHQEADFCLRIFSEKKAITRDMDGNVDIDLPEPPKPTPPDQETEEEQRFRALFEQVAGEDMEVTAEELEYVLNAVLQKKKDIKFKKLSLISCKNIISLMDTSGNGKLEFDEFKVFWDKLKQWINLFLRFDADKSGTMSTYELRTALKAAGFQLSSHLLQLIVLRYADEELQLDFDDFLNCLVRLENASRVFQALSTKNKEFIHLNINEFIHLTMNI
T3 sequence (P04632 1-268 partner): T1 sequence (P04632 1-268 partner)
The experiment in a line: Calpain inhibition continuous fluorescence (FRET) assay, Human Calpain 9/NS1. The experiment is classed as biochemical. The following applies: read-out: Human Calpain 9/NS1 IC50. The essentials: as §1

[3] abbreviates: A23187-induced SBDP-150, western blot.
Setting [4] is: Column D, A23187-induced SBDP-150.

SMILES strings stand for the structures. Like-named read-outs stand apart in the source and are kept apart here. A value given as a limit tells only on which side of the number the result lay.

Take `NC(=O)C(=O)C(Cc1ccccc1)NC(=O)c1c(Cl)cnn1-c1ncccn1` (stereo not drawn) [Compound 347, N-(4-amino-3,4-dioxo-1-phenylbutan-2-yl)-4-chloro-1-(pyrimidin-2-yl)-1H-pyrazole-5-carb oxamide]: the IC50 in experiment [1] was above 25 µM; on Human Calpain 1/NS1 it was below 3 µM; in experiment [2] (setting [3]) it was 10 to 25 µM; at Human Calpain 2/NS1, below 3 µM; at Human Calpain 9/NS1 it was below 3 µM.

`NC(=O)C(=O)[C@H](Cc1ccccc1)NC(=O)c1nnsc1-c1ccccc1` [Compound 28, (S)—N-(4-amino-3,4-dioxo-1-phenylbutan-2-yl)-5-phenyl-1,2,3-thiadiazole-4-carboxamide]: the IC50 was below 10 µM in experiment [1] (Column E); below 3 µM at Human Calpain 1/NS1 (Column A); below 10 µM in experiment [2] (setting [4]); below 3 µM at Human Calpain 2/NS1 (Column B); below 3 µM on Human Calpain 9/NS1 (Column C).

As to `N#Cc1ccc(-c2nn(C3CC3)cc2C(=O)NC(Cc2ccccc2)C(=O)C(N)=O)cn1` (stereo not drawn) [Compound 413, N-(4-amino-3,4-dioxo-1-phenylbutan-2-yl)-3-(6-cyanopyridin-3-yl)-1-cyclopropyl-1H-pyrazole-4-carboxamide], the IC50 in experiment [1] was above 25 µM; on Human Calpain 1/NS1, below 3 µM; in experiment [2] (setting [3]) it was above 25 µM; at Human Calpain 2/NS1 it was below 3 µM; on Human Calpain 9/NS1, below 3 µM.

On to `NC(=O)C(=O)C(Cc1ccccc1)NC(=O)c1cc(Br)nn1-c1ncccn1` (stereo not drawn) [Compound 497, N-(4-amino-3,4-dioxo-1-phenylbutan-2-yl)-3-bromo-1-(pyrimidin-2-yl)-1H-pyrazole-5-carb oxamide], for which the IC50 is below 10 µM in experiment [1]; below 3 µM on Human Calpain 1/NS1; 10 to 25 µM in experiment [2] (setting [3]); below 3 µM on Human Calpain 2/NS1; below 3 µM on Human Calpain 9/NS1.

`Cc1cc(C(=O)NC(Cc2ccccc2)C(=O)C(N)=O)n(-c2ccnc(C#N)n2)n1` (stereo not drawn) [Compound 437, N-(4-amino-3,4-dioxo-1-phenylbutan-2-yl)-1-(2-cyanopyrimidin-4-yl)-3-methyl-1H-pyrazole-5-carboxamide]: the IC50 in experiment [1] was 10 to 25 µM; at Human Calpain 1/NS1 it was below 3 µM; in experiment [2] (setting [3]) it was above 25 µM; at Human Calpain 2/NS1, below 3 µM; at Human Calpain 9/NS1, below 3 µM.

On to `Cn1cc(C(=O)N[C@H](C=O)Cc2ccccc2)c(-c2cccc(F)c2)n1` [Compound 328, (S)-3-(3-fluorophenyl)-1-methyl-N-(1-oxo-3-phenylpropan-2-yl)-1H-pyrazole-4-carboxamide], for which the IC50 in experiment [1] was above 25 µM; on Human Calpain 1/NS1 it was below 3 µM; in experiment [2] (setting [3]), 10 to 25 µM; on Human Calpain 2/NS1 it was below 3 µM; at Human Calpain 9/NS1 it was below 3 µM.

`Cc1noc(-c2ccccc2)c1C(=O)N[C@@H](Cc1ccccc1)C(=O)C(N)=O` [Compound 23, (S)—N-(4-amino-3,4-dioxo-1-phenylbutan-2-yl)-3-methyl-5-phenylisoxazole-4-carboxamide]: the IC50 was above 25 µM in experiment [1] (Column E); below 3 µM at Human Calpain 1/NS1 (Column A); 10 to 25 µM in experiment [2] (setting [4]); below 3 µM at Human Calpain 2/NS1 (Column B); below 3 µM on Human Calpain 9/NS1 (Column C).

For the compound `COc1cncc(-c2nn(C)cc2C(=O)NC(Cc2ccccc2)C(=O)C(N)=O)c1` (stereo not drawn) [Compound 515, N-(4-amino-3,4-dioxo-1-phenylbutan-2-yl)-3-(5-methoxypyridin-3-yl)-1-methyl-1H-pyrazole-4-carboxamide], the IC50 is above 25 µM in experiment [1]; below 3 µM on Human Calpain 1/NS1; above 25 µM in experiment [2] (setting [3]); below 3 µM at Human Calpain 2/NS1; below 3 µM at Human Calpain 9/NS1.

Turning to `Cn1cc(C(=O)NC(Cc2ccccc2)C(=O)C(N)=O)c(-c2cccc3ncccc23)n1` (stereo not drawn) [Compound 597, N-(4-amino-3,4-dioxo-1-phenylbutan-2-yl)-1-methyl-3-(quinolin-5-yl)-1H-pyrazole-4-carboxamide], the IC50 in experiment [1] was 10 to 25 µM; on Human Calpain 1/NS1 it was below 3 µM; in experiment [2] (setting [3]), 10 to 25 µM; at Human Calpain 2/NS1 it was below 3 µM; at Human Calpain 9/NS1 it was below 3 µM.
